In article PMC3973022, “Quercetin and quercetin 3-O-glycosides from Bauhinia longifolia (Bong.) Steud. show anti-Mayaro virus activity” (Parasites & Vectors, 2014):
In brackets after ≈: the same amount, converted by molar mass. Entries after “also recorded” stand apart in the source; their conditions may differ.

Assays:
[1] = Cytotoxicity by dye-uptake (neutral red) assay; details: African green monkey
Protocol: (§1) Vero cells (African green monkey kidney, ATCC CCL-81) were grown at 37°C with 5% CO2, in Dulbecco’s modified Eagle’s medium (DMEM) (Life Technologies, USA) supplemented with 5% fetal bovine serum (Cultilab, BRA), 50 IU/mL of penicillin, and 50 μg/mL of streptomycin (Sigma-Aldrich, USA). Mayaro viruses (ATCC VR-66, lineage TR 4675) were propagated in Vero cells and viral stocks in 10% glycerol were kept at -70°C. Virus titer was determined by plaque assay (described under ‘Antiviral activity assay’).
Briefly, confluent cultures of Vero cells in 96-well microplates were treated with culture media containing different concentrations of the substances being tested. After 24 hours, the culture medium was replaced by a solution of 50 μg/mL neutral red and the cells were incubated for 3 hours, at 37°C, 5% CO2. Cells were then fixed with 20% formaldehyde and extracted with 50% methanol and 1% acetic acid, before measurement of absorbance at λ490 nm, using a spectrophotometer, to detect neutral red incorporation by living cells.

Mayaro virus (MAYV) = assay: microbe, parasite or virus in culture; type: cell-based; details: for IC90: Vero, 24 h, read-out: IC90 (90% inhibitory concentration of viral replication); for IC50: read-out: IC50 (50% inhibitory concentration of viral replication), MAYV MOI 0.1 in Vero cells, 24 h treatment; for anti-MAYV activity (in words): concentrations tested 0–100 μg/ml
Protocol: as §1
Antiviral activity was evaluated using a virus yield inhibition assay. Briefly, confluent cell monolayers grown in 24-well plates were infected with MAYV (multiplicity of infection = 0.1) for 1 hour, then rinsed with PBS and treated for 24 hours (at 37°C and 5% CO2) with different concentrations (0–100 μg/ml) of flavonoids or extracts diluted in culture medium. After treatment, culture supernatants were recovered and used for titration of extracellular infectious virus particles. For virus titration, confluent cell monolayers in 24-well plates were infected with serial dilutions of recovered supernatants for 1 hour at 37°C, 5% CO2. After inoculum removal, cells were rinsed with PBS and the monolayer was incubated with fresh medium with 2% carboxymethylcellulose (Sigma-Aldrich, USA) for 48 hours at 37°C, 5% CO2. Finally, cells were fixed with 20% formaldehyde and stained with 0.5% crystal violet in 20% ethanol, and viral plaques were counted. […] P-values < 0.05 were considered statistically significant.

Which CC50 at 24 h [1] does the source give for `O=c1c(OC2OCC(O)C(O)C2O)c(-c2ccc(O)c(O)c2)oc2cc(O)cc(O)c12` (stereo not drawn) [Guaijaverin, quercetin-3-O-α-arabinoside] here?
The CC50 at 24 h was 795 ± 54 µg/mL (≈ 1830 µM).

What about the IC90 (Mayaro virus (MAYV); Mayaro virus) of the same compound?
The IC90 was over 100 µg/mL.

What about the IC50 (Mayaro virus (MAYV); Mayaro virus) of the same compound?
The IC50 was over 100 µg/mL.

What about the “anti-MAYV activity (in words)” value (Mayaro virus (MAYV); Vero cells) of the same compound?
Its value is “did not show significant antiviral activity; also recorded: absence of anti-MAYV activity”.

For `O=c1c(O)c(-c2ccc(O)c(O)c2)oc2cc(O)cc(O)c12` [Quercetin, quercetin], which CC50 at 24 h [1] is on record?
Its CC50 at 24 h is 941 ± 123 µg/mL (≈ 3110 µM).

And the “SI (Selectivity Index = CC50/IC50)” value (Mayaro virus (MAYV); CC50 in Vero cells / IC50 against MAYV)?
The value was 94.

What about the IC90 (Mayaro virus (MAYV); Mayaro virus) of the same compound?
Its IC90 is 19 ± 0.7 µg/mL (≈ 62.9 µM).

What about the IC50 (Mayaro virus (MAYV); Mayaro virus) of the same compound?
The IC50 was 10 ± 0.7 µg/mL (≈ 33.1 µM).

What about the inhibition at 25 µg/mL (Mayaro virus (MAYV); Mayaro virus, at 25 μg/mL, Vero cells, read-out: inhibition of MAYV replication/production) of the same compound?
Its inhibition at 25 µg/mL is over 90%.

And the “anti-MAYV activity (in words)” value (Mayaro virus (MAYV); Vero cells)?
The value was “showed significant anti-MAYV activity”.

Which results are given for `C[C@@H]1O[C@@H](Oc2c(-c3ccc(O)c(O)c3)oc3cc(O)cc(O)c3c2=O)[C@H](O)[C@H](O)[C@H]1O` [Quercitrin, quercetin-3-O-α-rhamnoside]?
CC50 at 24 h [1]: 411 ± 46 µg/mL (≈ 917 µM); IC90 (Mayaro virus (MAYV); Mayaro virus): > 100 µg/mL; IC50 (Mayaro virus (MAYV); Mayaro virus): > 100 µg/mL; anti-MAYV activity (in words) (Mayaro virus (MAYV); Vero cells): did not show significant antiviral activity; also recorded: absence of anti-MAYV activity

With `NC(=O)c1ncn([C@@H]2O[C@H](CO)[C@@H](O)[C@H]2O)n1` [Ribavirin, reference compound] as the compound, how does the CC50 at 24 h [1] read?
The CC50 at 24 h was 523 ± 42 µg/mL (≈ 2140 µM).

What about the IC90 (Mayaro virus (MAYV); Mayaro virus) of the same compound?
The IC90 was over 100 µg/mL.

And the IC50 (Mayaro virus (MAYV); Mayaro virus)?
The IC50 was 62 ± 4 µg/mL (≈ 254 µM).
